Laboratory results as given in patent US5633003A, “Use of intratracheally administered hyaluronic acid to ameliorate emphysema” (priority 1994, dated 1997).
“Also recorded” adds a separate entry of the source.

Key:
[1] = system: elastase-induced emphysema; test: Hyaluronic acid-elastase model, mean linear intercept measurement of air-space size; type: in vivo, Syrian hamsters; conditions: 1 week
Method: (§1) To test the possibility that addition of hyaluronic acid may inhibit air-space enlargement, Syrian hamsters were instilled with elastase intratracheally, then immediately given 1 mg of bovine tracheal hyaluronic acid by the same route. Controls received elastase followed by saline alone. Changes in air-space size were evaluated one week later, using the mean linear intercept method (8). To determine whether hyaluronic acid has elastase inhibitory capacity, it was incubated with pancreatic elastase in the presence of ^3 H-elastin. Controls contained elastase and ^3 H-elastin alone.
Following intratracheal administration of 20 units of pancreatic elastase (see above procedure), hamsters immediately received, by the same route, 1 mg of bovine tracheal hyaluronic acid (Sigma Chemical Co., St. Louis, Mo.), dissolved in 0.2 ml of saline solution.

[2] = system: elastase-induced emphysema; test: Hyaluronidase-elastase model, mean linear intercept measurement of air-space size; type: in vivo, Syrian hamsters
Method: To determine the effects of hyaluronidase on elastase-induced emphysema, Syrian hamsters received intratracheal instillments of bovine testicular hyaluronidase and, 24 hours later, porcine pancreatic elastase. Controls received: 1) saline followed by elastase, 2) elastase followed by hyaluronidase, and 3) saline followed by saline. Air-space enlargement was measured one week later, using the mean linear intercept method (8). Changes in lung elastin content were determined at 24 and 48 hours by quantifying elastin-specific desmosine and isodesmosine cross-links.
Female Syrian hamsters, weighing approximately 100 gms each, were anesthetized by intramuscular injection of ketamine hydrochloride (10 mg in 0.1 ml). The animals were then placed on a rodent surgical table (Harvard Bioscience, South Natick, Mass.) and restrained with elastic bands. The neck fur was shaved with a scalpel and a 2-cm vertical incision was made through the skin and subcutaneous fat. The underlying muscle was then cut to expose the trachea. A 26-gauge needle mounted on a 1-ml syringe was placed inside the tracheal lumen and 900 unite of highly purified bovine testicular hyaluronidase (Sigma Chemical Co., St. Louis, Mo.), dissolved in 0.3 ml normal saline solution, were delivered to the lungs in small increments. Twenty-four hours later, 20 units of porcine pancreatic elastase (Elastin Products, Pacific, Mo.), dissolved in 0.2 ml saline solution, were instilled by the same method. The incision was then closed with several sutures.

[3] = system: lungs; conditions: hamster, in vivo
Excerpt: One week after completion of the enzyme instillments, the hamsters were sacrificed by intraperitoneal injection of chloral hydrate. Their lungs were then fixed in-situ by inserting a catheter into the tracheas and allowing 10% neutral-buffered formalin to inflate the tissues at a pressure of 20 cm H2 O. Two hours later, the catheter was removed and the trachea was tied off to minimize deflation. both the lungs and heart were removed from the chest as a single block and additionally fixed in 10% formalin for several days. The lungs were then dissected free of extrapulmonary structures, sectioned randomly, and entirely submitted for histological processing.

[4] = system: pancreatic elastase; test: Measurement of elastase inhibitory capacity of hyaluronic acid (release of radioactivity from 3H-elastin); type: biochemical, porcine; conditions: 1, 10, 100 μg hyaluronic acid, 1 μg elastase, pH 8.0, 37° C., 22 hours, preincubated with elastase or 3H-elastin
Method: as §1
Various amounts of hyaluronic acid (1,10,100 μg) were incubated with pancreatic elastase (1 μg) and ^3 H-elastin in 0.2M Tris buffer, pH 8.0, at 37° C. for 22 hours (7,10). Hyaluronic acid was preincubated with either elastase or ^3 H-elastin for 10 minutes prior to the start of the assay. This was done to allow for the possible binding of one component to another. Following incubation, the samples were filtered, combined with scintillation fluid, and measured for radioactivity. The results were adjusted for nonspecific release of radioactivity and expressed as net counts per minute.

[5] = system: lung air-space; conditions: hyaluronidase alone; cited from earlier work
[6] = system: 3H-elastin; conditions: incubation with 3H-elastin; cited from earlier work

## elastase: porcine pancreatic elastase (Elastin Products), used to induce emphysema
[1]; elastase followed immediately by saline (model control)
  mean linear intercept (air-space size): 122 um
[2]; saline followed 24 hours later by elastase 20 units (model control), 1 week
  mean linear intercept value: 100 um

## hyaluronic acid
[1]; 1 mg hyaluronic acid intratracheally immediately after 20 units elastase, control elastase then saline 122 um
  mean linear intercept (air-space size): 82 um
[1]; hyaluronic acid intratracheally immediately after elastase, vs elastase followed by saline
  air-space enlargement: significantly reduced the amount of air-space enlargement; also recorded: marked decrease in air-space enlargement; also recorded: marked reduction in air-space enlargement
[3]
  histological changes of the lungs: No specific changes
[4]
  pancreatic elastase activity (release of radioactivity from 3H-elastin): no elastase inhibitory capacity; also recorded: did not reduce ^3 H-elastin breakdown, but instead caused a marked increase in the release of radioactivity; also recorded: does not prevent elastin from being degraded by elastase in-vitro
[4]; listed as Hyaluronic acid
  pancreatic elastase activity (release of radioactivity from 3H-elastin): enhanced, rather than inhibited, pancreatic elastase activity

## hyaluronidase
[5]
  air-space dilation: does not cause significant air-space dilation
[2]; elastase followed by hyaluronidase (reversed order), 1 week
  mean linear intercept value: 95.3 um
[2]; hyaluronidase 900 units intratracheally 24 hours prior to elastase, 1 week
  mean linear intercept value: 128 um
[2]; order of enzyme administration reversed (elastase then hyaluronidase)
  effect of hyaluronidase on air-space enlargement: abolished this effect; also recorded: extinguished
[2]; pre-treatment with hyaluronidase, then elastase, 1 week
  elastase-induced air-space enlargement: significantly increased elastase-induced air-space enlargement; also recorded: markedly enhanced
[6]
  elastase activity of the hyaluronidase preparation: no elastase activity
